# Measured values from patent publication US8378098B2, “Imidazol[1,2-α]quinoxalines and derivatives for the treatment of cancers” (Universite de Montpellier I, priority 2007, dated 2013).
# Entries after “also recorded” stand apart in the source; their conditions may differ. Like-named read-outs stand apart in the source and are kept apart here.
# Experiments:
# A375 melanoma = assay: in vitro cytotoxicity (antiproliferative activity) on A375 melanoma line; format: cell-based, human; details: for IC50: Homo sapiens, A-375
# Description: Antiproliferative activity was first measured on a cancer cell line of human origin, A375 melanoma.
# Imiquimod and fotemustine (Muphoran®) are used as controls in this study.
# (§1) Several human carcinoma cell lines were used: • Lines A375, M4Be, RPMI7591 from human melanoma. • Line LS174T from colon carcinoma. • Line A 2780 from ovarian carcinoma. • The Raji line from B lymphoma. • Line MCF7 from breast carcinoma.
# IC50 (concentration of the product tested which inhibits 50% of the maximum cell proliferation observed in the control wells) is determined graphically from the curve of the percentage of cell proliferation as a function of concentration of the product tested.
# treated cell lines = assay: mitochondrial route of apoptosis (Rhodamine 123 transmembrane potential, cytochrome C localization); format: cell-based, human
# Description: Mitochondria play a central role in apoptotic mechanisms. The first detectable cellular disturbance during the apoptotic process is a reduction in mitochondrial transmembrane potential.
# Indeed, activation of the intrinsic mitochondrial route in the cells studied is shown.
# MCF7 (breast cancer) = assay: in vitro cytotoxicity on MCF7 breast cancer line; format: cell-based; details: Homo sapiens, Table 2, unit inferred
# Description: as §1
# [1] = tested on: leukaemic cells derived from two patients with ATL; assay: cell proliferation of leukaemic cells derived from patients with ATL; format: cell-based, human
# [2] = tested on: normal lymphocytes activated or not activated by PHA; assay: growth of normal lymphocytes at rest or activated by PHA; format: cell-based, human; details: two healthy subjects
# Protocol: (§2) FIG. 2: HTLV-I-positive and HTLV-I-negative malignant human cell lines are sensitive to EAPB0203, but activated or inactivated normal T lymphocytes are resistant. Effects of EAPB0203 on the growth of human T lines not infected by HTLV-I (CEM, Jurkatt, Molt-4 and HuT-78), HTLV-I-positive human T lines (HuT-102 and C8166, and MT2), and normal lymphocytes at rest or activated by PHA. The activated normal PBMC were supplemented with 2% PHA. EAPB0203 was added at the concentrations indicated in mole/l for 24-96 h. Cell growth is analyzed with the “CellTiter 96®” nonradioactive cell growth kit. The results are expressed as a percentage of the control (0.1% DMSO) and represent the mean of the results obtained in three independent experiments.
# (§3) The in vitro activity of EAPB0203 on adult T-cell leukemia (ATL) transformed by retrovirus HTLV-I (HuT-102, MT2 . . . ) and malignant HTLV-I-negative T-cells (CEM, Jurkatt . . . ) was evaluated. Initially, the effect of EAPB0203 on cell growth of these lines was evaluated by two techniques, the nonradioactive “CellTiter 96®” cell growth kit and the trypan blue exclusion method.
# M4Be (melanoma) = assay: in vitro cytotoxicity on M4Be melanoma line; format: cell-based; details: Homo sapiens, Table 2, unit inferred, read-out: IC50 M4Be
# Description: as §1
# [3] = tested on: human T lines not infected by HTLV-I (CEM, Jurkatt, Molt-4 and HuT-78); assay: cell growth of human T lines not infected by HTLV-I (CellTiter 96, trypan blue exclusion); format: cell-based; details: 1 to 10 μM, 24-96 h
# Protocol: as §2, §3
# [4] = tested on: CEM, HuT-102, MT2, and Jurkatt cells; assay: cell cycle analysis by flow cytometry (propidium iodide); format: cell-based, human
# Protocol: (A) Effects of EAPB0203 on the distribution of the cell cycle of CEM, HuT-102, MT2, and Jurkatt cells. The cells treated by EAPB0203 were marked with propidium iodide ([…]) and analysis of the cellular cycle was carried out by FACScan flow cytometry. (b) The pre-G1 percentage represents the apoptotic cells. (c) The cells in cycle, the sum of phases (S+G2/M), are represented as a percentage of non-apoptotic cells. The results represent two independent experiments.
# The mechanisms of inhibition of cell proliferation caused by EAPB0203 in the cell lines studied were determined by flow cytometry. This study evaluated the distribution of cells in the various phases of the cell cycle. […] This pre-G0/G1 peak corresponds to cells whose DNA content is decreased by loss of cleaved DNA fragments during cell death (FIG. 3).
# M4Be human melanoma = assay: anti-proliferative activity in vivo, M4Be human melanoma xenografted in athymic mice
# Protocol: FIG. 1: Effects of fotemustine (20 mg/kg once per week for 3 weeks) and EAPB0203 (20 mg/kg twice per week for 3 weeks) on tumour growth in athymic Swiss mice xenografted with M4Be human melanoma cell line.
# Δ, control; ▪, EAPB0203; ●, fotemustine. The data are the results of only one experiment carried out on six mice per group. The results are represented as mean±SEM.
# In this study, data are presented relating to the activity of EAPB0203 on the volume of a type of human melanoma tumour model (M4Be lines), xenografted in athymic mice. This study required as a preliminary step several tests of grafts of human melanoma cell lines in athymic mice before establishing the adequate animal model. The in vivo study was performed following the in vitro experiments described previously.
# The activity and specificity of EAPB0203 in vivo on tumour growth of human melanoma are evaluated by monitoring tumour development in mice carrying M4Be melanoma treated by administration of fotemustine and EAPB0203 at various doses.
# For this study, 18 Swiss nude mice (3 groups of 6 mice) were used. M4Be cancer cells in suspension were injected subcutaneously into the right flank of each athymic Swiss nude female 7-week-old mouse weighing 20-22 g at the beginning of the protocol. The mice were then maintained in a sterile atmosphere and received aseptic food and water. The weight of the mouse and the growth of the tumour in three dimensions were recorded twice a week.
# A first group of 6 mice (reference) will receive fotemustine by intra-peritoneal route at a dose of 20 mg/kg once per week for 3 weeks, beginning 7 days after inoculation at the time when the tumour will be visible and palpable. A second group of 6 mice will receive EAPB0203 at the same dose of 20 mg/kg via intra-peritoneal route but twice per week (40 mg/kg per week). The third group (control) of 6 mice will receive only the administration carrier. Tumour volume is calculated by the following formula: length X width X height X 0.52, and is expressed as mean±SEM mm^3.
# For fotemustine and EAPB0203, the sequence of administrations is a treatment of three weeks, then two weeks without treatment, and then a second treatment of three weeks.
# [5] = A375, comparison of IC50 values
smiles,measurement,setting,value
"CNc1nc2ccccc2n2c(CCc3ccccc3)cnc12 [EAPB0203, N-methyl-1-(2-phenylethyl)imidazo[1,2-a]quinoxalin-4-amine]",activity times higher than that of fotemustine,A375 melanoma; [5],110 times
same,activity times higher than that of imiquimod,A375 melanoma; [5],50 times
same,IC50,"A375 melanoma; A375 melanoma line, Table 1, IC50 and standard deviation, read-out: IC50",1570 nM
same,IC50,"A375 melanoma; Table 2, unit inferred, read-out: IC50 A375",1570 ± 560 nM
same,mitochondrial transmembrane potential,"treated cell lines; Rhodamine 123, flow cytometry",drop in the mitochondrial transmembrane potential
same,sub-cellular localization of cytochrome C,treated cell lines; treated cell lines,presence of cytochrome C in the cytoplasm
same,IC50,MCF7 (breast cancer),1080 ± 460 nM
same,cell proliferation of leukaemic cells from ATL patients,[1],induced inhibition of cell proliferation
same,growth of normal lymphocytes,[2],completely resistant
same,IC50,M4Be (melanoma),2580 ± 400 nM
same,growth of malignant T-cells not associated with HTLV-I,[3],"sensitive; also recorded: progressive, dose-dependent inhibition"
same,pre-G0/G1 apoptotic population,[4],presence of a pre-G0/G1 apoptotic population
same,distribution of cells in the phases of the cell cycle,[4]; propidium iodide,induces the termination of the cell cycle in phase G2/M; also recorded: progressive accumulation of cells in phase G2
same,"tolerance (weight, side effects)","M4Be human melanoma; 20 mg/kg twice per week, intra-peritoneal, mice carrying M4Be melanoma",well tolerated without loss of weight or apparent side effects
same,tumour growth compared to control mice and fotemustine mice,"M4Be human melanoma; EAPB0203 20 mg/kg twice per week i.p., FIG. 1",significant delay in tumour growth
same,tumour volume of a remaining mouse when last fotemustine mice were euthanatized,"M4Be human melanoma; day 76, 20 mg/kg twice per week i.p.",less than 2 cm^3
